pEC50, pIC50: −log10 of the molar value. Where a SMILES comes first, the peptide text is derived from it. [ ]: non-standard residue; d: D form. d2Nal = N[C@H](Cc1ccc2ccccc2c1)C(=O)O; Aib = CC(C)(N)C(=O)O
Legend:
[1] = target: Growth hormone secretagogue receptor type 1 (Rattus norvegicus) (UniProt O08725); test: (§1) Tested for GH-releasing property using classical rat pituitary cell assay; assay type: functional, cell-based; conditions: Pituitary gland cell
[2] = target: Growth hormone secretagogue receptor type 1 (Rattus norvegicus, UniProt O08725); test: as §1; assay type: functional, cell-based, Pituitary gland cell
Sus scrofa [3] = test: Tested for in vivo activity against GH release after iv administration in swine
[4] = Oral bioavailability in dog (Beagle); assay type: ADME, organism-based, Canis lupus familiaris; conditions: in vivo; for bioavailability: beagle
Sus scrofa [5] = test: Compound was tested for potency against GH release iv administration in swine; assay type: functional
Sus scrofa [6] = test: Compound was tested for efficacy against GH release iv administration in swine; assay type: functional
Rattus norvegicus [7] = species: Rattus norvegicus; test: Compound was tested against the effect of N-acetyl-Tyr-D-Arg(1-29)GHRH-NH2 on the release of growth hormone from pituitary cells in rat; assay type: functional, cell-based; conditions: Pituitary gland cell
[8] = Oral bioavailability in dog (Beagle) (dose 2.5 mg/kg); assay type: ADME, organism-based, Canis lupus familiaris; conditions: in vivo
[9] = Compound was tested for oral bioavailability after 0.5 mg/kg administration (Po) in Beagle dogs; fpo % Oral Bioavailability; assay type: ADME, organism-based, Canis lupus familiaris; conditions: dog, in vivo
Rattus norvegicus [10] = species: Rattus norvegicus; test: Compound was tested against the effect of L-692400 on the release of growth hormone from pituitary cells in rat; assay type: functional, cell-based; conditions: Pituitary gland cell
Canis familiaris [11] = test: Compound was tested Growth Hormone(GH) release after 0.5 mg/kg administration (Po) in Beagle dogs; assay type: functional, organism-based; set-up: dose 0.5 mg/kg; conditions: Canis lupus familiaris
Rattus norvegicus [12] = species: Rattus norvegicus; test: Compound was tested against the effect of D-Lys3-GHRP-6 on the release of growth hormone from pituitary cells in rat; assay type: functional, cell-based; conditions: Pituitary gland cell
[13] = Compound was tested for maximum blood concentration after 10 mg/kg administration (Po) in Beagle dogs; nM/L maximum blood concentration; assay type: ADME, organism-based, Canis lupus familiaris; set-up: route oral, dose 10 mg/kg; conditions: dog
Canis familiaris [14] = test: Compound was tested Growth Hormone(GH) release after 10 mg/kg administration (Po) in Beagle dogs; assay type: functional, organism-based; set-up: dose 10 mg/kg; conditions: Canis lupus familiaris
[15] = Compound was tested for oral bioavailability after 10 mg/kg administration (Po) in Beagle dogs; fpo % Oral Bioavailability; assay type: ADME, organism-based, Canis lupus familiaris; conditions: dog, in vivo
Rattus norvegicus [16] = species: Rattus norvegicus; test: Compound was tested against the effect of substance P antagonist on the release of growth hormone from pituitary cells in rat; assay type: functional, cell-based; conditions: Pituitary gland cell
Canis familiaris [17] = test: Compound was tested Growth Hormone(GH) release after 2.5 mg/kg administration (Po) in Beagle dogs; assay type: functional, organism-based; set-up: dose 2.5 mg/kg; conditions: Canis lupus familiaris
[18] = Compound was tested for maximum blood concentration after 2.5 mg/kg administration (Po) in Beagle dogs; nM/L maximum blood concentration; assay type: ADME, organism-based, Canis lupus familiaris; set-up: route oral, dose 2.5 mg/kg; conditions: dog
[19] = Compound was tested for maximum blood concentration after 0.5 mg/kg administration (Po) in Beagle dogs; nM/L maximum blood concentration; assay type: ADME, organism-based, Canis lupus familiaris; set-up: route oral, dose 0.5 mg/kg; conditions: dog
[20] = Compound was tested for maximum concentration in blood after 10 mg/kg administration (Po) in Beagle dogs; nmol/L maximum blood concentration; conditions: dog
[21] = Compound was tested for maximum concentration in blood after 2.5 mg/kg administration (Po) in Beagle dogs; nmol/L maximum blood concentration; conditions: dog
[22] = Compound was tested for oral bioavailability after 10 mg/kg administration (Po) in Beagle dogs; F % Oral Bioavailability; assay type: ADME, organism-based, Canis lupus familiaris; conditions: dog, in vivo
Sus scrofa [23] = test: Compound was tested for potency against GH release upon iv administration in swine; assay type: functional
Sus scrofa [24] = test: Compound was tested for efficacy against GH release upon iv administration in swine; assay type: functional

Growth hormone secretagogue receptor type 1 (Rattus norvegicus), sequence (O08725 whole entry): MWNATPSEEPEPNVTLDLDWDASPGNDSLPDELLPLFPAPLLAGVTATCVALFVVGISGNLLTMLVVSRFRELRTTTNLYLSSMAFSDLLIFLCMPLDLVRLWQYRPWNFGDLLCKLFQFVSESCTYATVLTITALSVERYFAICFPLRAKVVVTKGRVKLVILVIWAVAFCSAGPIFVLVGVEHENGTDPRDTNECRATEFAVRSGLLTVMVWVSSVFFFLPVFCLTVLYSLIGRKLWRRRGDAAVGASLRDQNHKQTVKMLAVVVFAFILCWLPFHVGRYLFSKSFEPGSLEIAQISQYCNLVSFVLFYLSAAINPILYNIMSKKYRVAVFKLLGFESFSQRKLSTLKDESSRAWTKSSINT
Growth hormone secretagogue receptor type 1, sequence (O08725 whole entry): as above

| SMILES | Emax [1] [%] | pEC50 [2] | Cmax [GH] (Sus scrofa [3]) [ng/mL] | bioavailability [4] [%] | also measured |
| --- | --- | --- | --- | --- | --- |
| CN(C(=O)/C=C/CC(C)(C)N)[C@H](Cc1ccc2ccccc2c1)C(=O)N(C)[C@H](Cc1ccccc1)C(=O)NCC1CC1 | 105 | 8.74 | 14 | 24 |  |
| CNC(=O)[C@@H](Cc1ccccc1)N(C)C(=O)[C@@H](Cc1cccc2ccccc12)N(C)C(=O)/C=C/CC(C)(C)N | 115 | 7.62 | 12 |  |  |
| C[C@H](O)CNC(=O)[C@@H](Cc1ccc(F)c(F)c1)N(C)C(=O)[C@@H](Cc1ccc2ccccc2c1)N(C)C(=O)/C=C/CC(C)(C)N | 100 | 8.30 | 5 |  |  |
| CNC(=O)[C@@H](Cc1ccccc1)N(C)C(=O)[C@@H](Cc1ccc(-c2ccccc2)cc1)N(C)C(=O)/C=C/CC(C)(C)N | 120 | 8.52 |  | 0 |  |
| C[C@H](O)CNC(=O)[C@@H](Cc1cccs1)N(C)C(=O)[C@@H](Cc1ccc2ccccc2c1)N(C)C(=O)/C=C/CC(C)(C)N | 120 | 7.35 |  |  |  |
| CNC(=O)[C@@H](Cc1ccc(I)cc1)N(C)C(=O)[C@@H](Cc1ccc2ccccc2c1)N(C)C(=O)/C=C/CC(C)(C)N | 110 | 7.70 | 0.4 | 26 |  |
| CNC(=O)[C@@H](Cc1cccs1)N(C)C(=O)[C@@H](Cc1ccc2ccccc2c1)N(C)C(=O)/C=C/CC(C)(C)N | 110 | 8.70 | 55 | 15 |  |
| CC(C)(N)C(=O)N[C@@H](Cc1c[nH]cn1)C(=O)N[C@H](Cc1ccc2ccccc2c1)C(=O)N[C@H](Cc1ccccc1)C(=O)N[C@@H](CCCCN)C(N)=O [IPAMORELIN] (H-[Aib]H[d2Nal][dF]K-NH2) |  |  |  |  | ED50 (Sus scrofa [5]): 0.0023 µmol/kg; Emax (Sus scrofa [6]): 65 ng/mL |
| C[C@@H](O)CNC(=O)[C@@H](Cc1ccccc1)N(C)C(=O)[C@@H](Cc1ccc2ccccc2c1)N(C)C(=O)/C=C/CC(C)(C)N (stereo in doubt; 7o) [listing 1 of 2 here] | 105 |  | 9 |  |  |
| CN(C(=O)/C=C/CC(C)(C)N)[C@H](Cc1ccc2ccccc2c1)C(=O)N(C)[C@H](Cc1ccccc1)C(=O)NCC1CCCO1 (stereo partly drawn) | 100 | 7.80 | 9 | 17 |  |
| CCNC(=O)[C@@H](Cc1ccccc1)N(C)C(=O)[C@@H](Cc1ccc2ccccc2c1)N(C)C(=O)/C=C/CC(C)(C)N | 105 | 7.89 |  | 14 |  |
| CNC(=O)[C@@H](Cc1ccc(F)cc1)N(C)C(=O)[C@@H](Cc1ccc2ccccc2c1)N(C)C(=O)/C=C/CC(C)(C)N | 90 | 8.10 | 30 | 49 | ED50 (Sus scrofa [5]): 0.129 µmol/kg; pIC50 (Rattus norvegicus [7]): < 5.00; bioavailability [8]: 55%; bioavailability [9]: 53%; pIC50 (Rattus norvegicus [10]): 4.85; Cmax [GH] (Canis familiaris [11]): 2.7 ng/mL; Emax (Sus scrofa [6]): 86 ng/mL; pIC50 (Rattus norvegicus [12]): 5.05; Cmax [13]: 3030 nM; Cmax [GH] (Canis familiaris [14]): 12 ng/mL; bioavailability [15]: 138%; pIC50 (Rattus norvegicus [16]): 7.31; Cmax [GH] (Canis familiaris [17]): 4.5 ng/mL; Cmax [18]: 247 nM; Cmax [19]: 99 nM |
| CNC(=O)[C@@H](Cc1ccccc1)N(C)C(=O)[C@@H](Cc1ccc2ccccc2c1)N(C)C(=O)/C=C/CC(C)(C)N [TABIMORELIN] | 110 | 7.74 |  |  |  |
| CNC(=O)[C@@H](Cc1ccccc1)N(C)C(=O)[C@@H](COCc1ccccc1)N(C)C(=O)/C=C/CC(C)(C)N | 125 | 8.30 | 0.4 | 11 |  |
| C[C@@H](O)CNC(=O)[C@@H](Cc1ccccc1)N(C)C(=O)[C@@H](Cc1ccc2ccccc2c1)N(C)C(=O)/C=C/CC(C)(C)N (stereo in doubt; 7b) [listing 1 of 2 here] |  | 8.05 |  |  | ED50 (Sus scrofa [5]): 0.031 µmol/kg; Cmax [20]: 2320 nM; pIC50 (Rattus norvegicus [7]): < 5.00; bioavailability [8]: 21%; pIC50 (Rattus norvegicus [10]): 4.96; Emax (Sus scrofa [6]): 96 ng/mL; Cmax [21]: 260 nM; pIC50 (Rattus norvegicus [12]): 5.10; bioavailability [22]: 41%; pIC50 (Rattus norvegicus [16]): 6.85; F [4]: 25% |
| CNC(=O)[C@@H](Cc1ccccc1)N(C)C(=O)[C@@H](Cc1csc2ccccc12)N(C)C(=O)/C=C/CC(C)(C)N | 80 | 7.46 |  |  |  |
| CNC(=O)[C@@H](Cc1ccc(F)c(F)c1)N(C)C(=O)[C@@H](Cc1ccc2ccccc2c1)N(C)C(=O)/C=C/CC(C)(C)N | 85 | 7.77 | 6 | 54 |  |
| C[C@H](NC(=O)C(Cc1c[nH]c2ccccc12)NC(=O)[C@@H](N)Cc1c[nH]cn1)C(=O)N[C@@H](Cc1c[nH]c2ccccc12)C(=O)NC(Cc1ccccc1)C(=O)N[C@@H](CCCCN)C(N)=O (single isomer, unassigned) | 100 |  |  |  | ED50 (Sus scrofa [23]): 0.0039 µmol/kg; pIC50 (Rattus norvegicus [7]): < 5.00; pIC50 (Rattus norvegicus [10]): 5.00; Emax (Sus scrofa [24]): 74 ng/mL; pIC50 (Rattus norvegicus [12]): 5.10; pIC50 (Rattus norvegicus [16]): 7.42 |
| C[C@@H](O)CNC(=O)[C@@H](Cc1ccccc1)N(C)C(=O)[C@@H](Cc1ccc2ccccc2c1)N(C)C(=O)/C=C/CC(C)(C)N (stereo in doubt; 7o) [listing 2 of 2 here] |  | 8.05 |  |  | F [4]: 0% |
| CN(C(=O)/C=C/CC(C)(C)N)[C@H](Cc1cccc2ccccc12)C(=O)N(C)[C@H](Cc1ccccc1)C(=O)NCC1CCCO1 (stereo partly drawn) | 110 | 7.68 |  |  |  |
| C[C@@H](O)CNC(=O)[C@@H](Cc1ccccc1)N(C)C(=O)[C@@H](Cc1ccc2ccccc2c1)N(C)C(=O)/C=C/CC(C)(C)N (stereo in doubt; 7b) [listing 2 of 2 here] | 130 |  | 26 |  | Cmax [GH] (Canis familiaris [11]): 1.8 ng/mL; Cmax [GH] (Canis familiaris [14]): 42.5 ng/mL; Cmax [GH] (Canis familiaris [17]): 6.6 ng/mL |

— ChEMBL document CHEMBL1131585, “Novel orally active growth hormone secretagogues” (J Med Chem, 1998)
